Series [1] relates to CMV-EE210 cell line. As to the kind of experiment: Toxicity (TD50, cell viability) reported with the GFP assay. The conditions noted are these: for TD50: Dose at which cells are >50% viable.
For series [2], the target named is T1, DNMT1 (Homo sapiens, UniProt P26358). As to the kind of experiment: Selective depletion of DNMT1 by Western blot in treated HCT116 cells. The arrangement: Protein extracts (equivalent to 100 μg) were isolated from HCT116 cells; endogenous in cells; host or cells: HCT116. The conditions noted are these: for % DNMT1 protein level remaining at 5 µM: HCT-116, 5 μM; for % DNMT1 protein level remaining at 10 µM: HCT-116, 10 μM; for % DNMT1 protein level remaining at 100 µM: HCT-116, 100 μM. In kind it is cell-based. An excerpt:
Biol. 2005, 11, 4727-41.]. For DNMT1, commercially available antibodies from Santa Cruz or New England Biolabs were used.
Target sequence in this assay (P26358 whole entry): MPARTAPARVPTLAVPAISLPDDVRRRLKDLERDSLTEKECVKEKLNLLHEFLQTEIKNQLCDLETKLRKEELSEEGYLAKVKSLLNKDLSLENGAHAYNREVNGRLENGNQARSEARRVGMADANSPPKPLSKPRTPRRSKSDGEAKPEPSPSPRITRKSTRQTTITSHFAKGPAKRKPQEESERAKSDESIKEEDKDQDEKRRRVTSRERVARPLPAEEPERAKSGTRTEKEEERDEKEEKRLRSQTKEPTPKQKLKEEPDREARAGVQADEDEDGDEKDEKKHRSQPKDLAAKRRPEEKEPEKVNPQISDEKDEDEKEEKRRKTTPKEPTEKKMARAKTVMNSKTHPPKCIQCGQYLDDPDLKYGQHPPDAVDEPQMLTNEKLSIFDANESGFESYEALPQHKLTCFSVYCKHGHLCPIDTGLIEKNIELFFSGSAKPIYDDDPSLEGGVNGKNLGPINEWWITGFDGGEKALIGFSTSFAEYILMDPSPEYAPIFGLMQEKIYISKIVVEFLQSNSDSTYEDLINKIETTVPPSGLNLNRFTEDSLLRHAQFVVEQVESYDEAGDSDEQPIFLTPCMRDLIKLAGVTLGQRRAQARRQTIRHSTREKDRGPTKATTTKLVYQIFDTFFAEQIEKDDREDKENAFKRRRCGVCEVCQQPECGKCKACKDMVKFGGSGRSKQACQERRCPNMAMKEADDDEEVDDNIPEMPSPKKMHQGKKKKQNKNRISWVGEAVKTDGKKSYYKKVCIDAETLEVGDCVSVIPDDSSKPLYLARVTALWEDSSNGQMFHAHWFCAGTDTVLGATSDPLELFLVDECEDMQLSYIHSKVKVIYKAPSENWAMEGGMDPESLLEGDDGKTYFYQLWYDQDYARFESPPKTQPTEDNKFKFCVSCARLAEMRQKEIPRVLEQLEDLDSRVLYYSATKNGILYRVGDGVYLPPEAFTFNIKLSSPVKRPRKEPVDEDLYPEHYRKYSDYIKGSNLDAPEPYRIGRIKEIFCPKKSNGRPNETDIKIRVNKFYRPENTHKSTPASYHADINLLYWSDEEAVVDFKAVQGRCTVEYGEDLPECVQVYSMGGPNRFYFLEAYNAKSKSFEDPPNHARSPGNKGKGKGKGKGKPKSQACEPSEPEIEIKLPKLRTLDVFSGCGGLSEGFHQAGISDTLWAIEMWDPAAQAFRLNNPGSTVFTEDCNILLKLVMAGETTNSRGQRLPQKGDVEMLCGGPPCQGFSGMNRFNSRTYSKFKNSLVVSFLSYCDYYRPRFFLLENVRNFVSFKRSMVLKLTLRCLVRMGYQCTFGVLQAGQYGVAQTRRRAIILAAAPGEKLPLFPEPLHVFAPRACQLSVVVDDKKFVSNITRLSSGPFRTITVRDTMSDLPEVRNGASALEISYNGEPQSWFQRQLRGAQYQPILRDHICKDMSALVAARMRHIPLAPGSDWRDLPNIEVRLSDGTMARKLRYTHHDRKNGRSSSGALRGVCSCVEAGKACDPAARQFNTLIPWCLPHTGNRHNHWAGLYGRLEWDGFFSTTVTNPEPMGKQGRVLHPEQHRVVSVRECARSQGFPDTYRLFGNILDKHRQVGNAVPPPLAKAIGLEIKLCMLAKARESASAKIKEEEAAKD
(Immunoblotting shows a protein as a band on a membrane.)

In series [3] the test system is CMV-EE210 cell line containing the epigenetically silenced GFP transgene. Put plainly: Cell-based GFP assay for demethylating activity (reactivation of silenced GFP transgene). The following applies: for IC50: read-out: GFP IC50. The method, then:
The demethylating activity of non-bis-quaternary 4-anilinoquinolines were tested in a cell-based GFP (green fluorescent protein) assay. This assay has a GFP gene regulated by the CMV promoter and is sensitive to the methylation of CpG sites within the promoter. A decrease in methylation resulting from exposure to a methylation inhibitor leads to GFP expression and is readily scored. Specifically, the CMV-EE210 cell line containing the epigenetically silenced GFP transgene was used to assay for reactivation of GFP expression by flow cytometry. CMV-EE210 was made by transfecting NIH 3T3 cells with the pTR-UF/UF1/UF2 plasmid (Zolotuhin et al., 1996), which is comprised of pBS(+) (Stratagene, Inc.) containing a cytomegalovirus (CMV) promoter driving a humanized GFP gene adapted for expression in mammalian cells. After transfection, high-level GFP expressing cells were initially selected by FACS analysis and sorting using a MoFlo cytometer (Cytomation, Inc.). […] To screen for reactivation of CMV-EE210, decitabine (at […]) or a test compound (at a concentration of 30-50 μM) was added to complete medium (phenol red free DMEM (Gibco, Life Technologies) supplemented with 10% fetal bovine serum (Hyclone)). Cells were then seeded to 30% confluence (˜5000 cell/well) in 96 well plate containing the test compounds and grown for three days in at 37° C. in 5% CO2. The plates were examined under a fluorescent microscope using a 450-490 excitation filter (13 filter cube, Leica, Deerfield Ill.). Wells were scored g1 positive if 10% of viable cells express GFP, g2 positive if 30% of viable cells express GFP and g3 if greater than 75% of the viable cells express GFP. GFP IC 50 is the concentration of an inhibitor that (like an IC50) is the dose at which the GFP expression level goes from g3 to g1/2.

The test system of series [4] is p16. As to the kind of experiment: RT-PCR assay for gene expression (p16) in RKO and HCT-116 cells. In kind it is cell-based. The conditions noted are these: FIG. 1, varying concentrations, forty eight hour incubation. The method, then:
RKO and HCT-116 cells were treated with Cpd. AAA, Cpd. BBB, and Cpd. CCC at varying concentrations. After a forty eight hour incubation cells were harvested for RNA isolation using the Qiagen RNeasy Mini kit. RNA was quantified using a spectrophotometer and 1 μg of RNA was used for cDNA synthesis using the Bio-Rad iScript cDNA Synthesis Kit. RTPCR was performed using SYBER GreenER qPCR SuperMix for iCycler according to the manufacturer's protocol. Primer sequences used are as follows [NT] (SEQ ID NO: 2) and [NT] (SEQ ID NO: 3), MLH-1 [NT] (SEQ ID NO: 4) and [NT] (SEQ ID NO:5), [NT] (SEQ ID NO: 6) and [NT] (SEQ ID NO: 7), GAPDH [NT] (SEQ ID NO:8) and [NT] (SEQ ID NO:9), and […] (SEQ ID NO: 10) and [NT] (SEQ ID NO:11). Samples were analyzed on the iQ5 Multicolor Real-Time PCR Detection System from Bio-Rad. Data analysis was performed using the iQ5 Optical System Software version 2.0, Threshold Cycle (CT) and CT mean values were determined from this software. For each sample there are at least four reactions, two for p16 and two for GAPDH the housekeeping control. The mean CT value from the GAPDH reactions was subtracted from each of the corresponding p16 samples CT giving a value termed Delta CT. Then the Delta CT for the untreated p16 sample is subtracted from all treated Delta CT values giving another value termed Delta Delta CT. […] The duplicate samples are averaged together to get an average Relative Expression for each treatment and the Standard Error is calculated. Relative expression values for p15 and MLH-1 were calculated using the same method. […] AAA, Cpd. BBB, and Cpd. […] Cpd. […] Because the higher levels of p16 seemed to have less effect in causing re-expression of p16 there may be some issues with drug solubility or toxicity at the higher concentrations tested.

Series [5] concerns RKO. As to the kind of experiment: Cell-based growth assay (Cell-Titer-Glo), RKO. The conditions noted are these: Homo sapiens, 96 hours, read-out: IC50 Values CTG. The method, then: Cell culture-based assays can be used to evaluate the ability of compounds of the invention to inhibit one or more cellular activities, such as cancer cell growth and/or survival. Numerous cancer cell lines can be obtained from the American Type Culture Collection (ATCC) and other sources. Briefly, cells are seeded into 96-well, tissue-culture treated, opaque white plates (Thermo Electron, Vantaa, Finland), at between 5000 and 10000 cells per well, depending on the speed of cell proliferation, in 100 μl of appropriate growth medium (determined by the ATCC). Cells are then exposed to the appropriate concentration of drug or an equal amount of DMSO (drug diluent) and allowed to grow in its presence for 96 hours. Following this, 100 μl of Cell-Titer-Glo (CTG) reagent (Promega, Inc., Madison, Wis.) is added to each well. Plates are then shaken for 2 minutes at room temperature to allow for cell lysis and incubated for 10 minutes at room temperature to stabilize the luminescent signal. Similar to the Kinase-Glo assay reagent from Promega, this reagent contains both luciferase enzyme and its substrate luciferin. Luciferase, activated by ATP in the cell lysate, catalyzes the conversion of luciferin to oxyluciferin, a reaction which produces light. The amount of light produced is proportionate to the amount of ATP in the cell lysate, which is itself proportional to cell number and gives an index of cellular proliferation.

The target in series [6] is T1, DNMT1. As to the kind of experiment: DNMT1 Inhibition Assay (Epigentek DNMT1 Activity/Inhibition kit). The following applies: 100 μM SAM, 2.2 μg/ml DNMT1 enzyme. In kind it is biochemical. The method, then: The DNMT1 Activity/Inhibition kit from Epigentek Inc. (Brooklyn, N.Y.) was used in this experiment (Catalog No. P-3006). In general terms, this assay utilizes an active DNMT1 enzyme incubated with S-adenosylmethionine (SAM) in 96-well plates upon which unmethylated DNA has been immobilized onto the surface of each well. After incubation the reaction wells are washed and probed with a primary anti-methylcytosine antibody, which will bind to methylated DNA. A secondary antibody is then used to detect the primary antibody and creates a signal that is proportional to the amount of methylated DNA in the well. Uninhibited DNMT1 produces a well with high levels of methylated DNA (high signal), whereas inhibited DNMT1 produces a well with low levels of methylation (low signal). The final concentrations of reagents used in this DNMT1 assay were as follows: 100 μM SAM and 2.2 μg/ml DNMT1 enzyme, with inhibitor concentrations typically ranging from 100 μM to 0.781 μM.
More specifically, test compounds were resuspended in 100% DMSO at 3 mM and serially diluted 1:2 in DMSO 8 times. A volume of 100 μl of 1× assay buffer was combined with 12 μl of 1 mM SAM solution and 4 μl of 66.7 μg/mL DNMT1 enzyme in the presence of 4 μl of test compound diluted in DMSO. Controls include enzyme only (no inhibitor, but containing 3.3% DMSO), no enzyme, and compounds having inhibitory activity. A volume of 30 μl of the mixed solution was then added to the substrate-coated wells in triplicate and incubated at 37° C. for 2 hours. Reaction wells are then washed 3× with 150 μl of DNMT wash buffer. The primary antibody (anti-methylcytosine) was diluted 1:1000 in wash buffer, added to each well (50 μl) and incubated at room temperature for 1 hour. Reaction wells were washed again. The secondary antibody was diluted 1:1000 in wash buffer, added to each well (50 μl) and incubated at room temperature for 30 min. The wells were washed for the last time. […] The stop solution was added (50 μl) and the plate was immediately read on a plate reader at 450 nm absorbance. […]
Target sequence in this assay (P26358 whole entry, species assumed): as the sequence (P26358 whole entry) above

Like-named read-outs stand apart in the source and are kept apart here.

Take `CN(C)c1ccc2c(Nc3ccc(NC(=O)c4cccc(Nc5cc[n+](C)cc5)c4)cc3)ccnc2c1` [Cpd. CC, 7-(dimethylamino)-4-[4-({3-[(1-methyl-4-pyridiniumyl)amino]benzoyl}amino)aniline]quinolinium dichloride]: the melting point is 188 °C (dec.). For the same compound, in series [1], the “toxicity relative to decitabine” value is given as “less than one-half as toxic as decitabine” and the TD50 worked out at 25 µM. In series [2], the % DNMT1 protein level remaining at 5 µM is 65%, the % DNMT1 protein level remaining at 10 µM came to 81% and the % DNMT1 protein level remaining at 100 µM was 26%. Besides, in series [3], the IC50 is 6 µM.
As to `Cl.O=C(Nc1ccc(Sc2ccnc(O)c2)cc1)c1ccc(Nc2ccnc3ccccc23)cc1` [Cpd. CCC, N-[4-(2-hydroxypyridin-4-ylthio)phenyl]-4-(quinolin-4-ylamino)benzamide hydrochloride], the “RNA expression levels of p16” value in series [4] is “increase the RNA expression levels of p16”. Further, the IC50 in series [5] worked out at 6.6 µM.
Compound `O=C(Nc1ccc(SC2CNC(C(=O)O)C2)cc1)c1ccc(Nc2ccnc3ccccc23)cc1` (stereo not shown) [Cpd. DDD, 4-(4-(4-(quinolin-4-ylamino)benzamido)phenylthio)pyrrolidine-2-carboxylic acid] showed an IC50 in series [6] of 1.6 µM.
`O=C(Nc1ccc(SC2CCNC2)cc1)c1ccc(Nc2ccnc3ccccc23)cc1` (stereo not shown) [Cpd. EEE, 3-(4-(4-(quinolin-4-ylamino)benzamido)phenylthio)pyrrolidine] yielded an IC50 in series [6] of 5.5 µM.
As for `O=C(Nc1ccc(SC2CCCNC2)cc1)c1ccc(Nc2ccnc3ccccc23)cc1` (stereo not shown) [Cpd. GGG, N-(4-(piperidin-3-ylthio)phenyl)-4-(quinolin-4-ylamino)-benzamide], in series [6], the IC50 was determined as 0.31 µM.
On to `C[n+]1ccc(Nc2ccc(NC(=O)c3ccc(Nc4ccnc5ccc(N)cc45)cc3)cc2)cc1` [Cpd. L, 4-[4-({4-[(6-ammonio-4-quinolinyl)amino]benzoyl}amino)anilino]-1-methylpyridinium dichloride], for which the melting point was in the range of 262 to 266 °C. The compound also yielded a TD50 in series [1] of 50 µM. In series [2], the % DNMT1 protein level remaining at 5 µM stood at 144%, the % DNMT1 protein level remaining at 10 µM stood at 145% and the % DNMT1 protein level remaining at 100 µM was determined as 128%. Also, the IC50 in series [3] worked out at 50 µM. Also, the “GFP Expression Level” value in series [3] (test compound 30-50 μM, decitabine at 11 M (so in the source), three days) is listed as “g2 (g2 positive if 30% of viable cells express GFP)”.
Compound `CN(C)c1ccc2nccc(Nc3ccc(C(=O)Nc4ccc(Nc5cc[n+](C)cc5)cc4)cc3)c2c1` [Cpd. O, 4-[4-({4-[(6-dimethylammonio-4-quinolinyl)amino]benzoyl}amino)-anilino]-1-methylpyridinium dichloride] had a melting point of 242 to 246 °C. Moreover, in series [1], the “toxicity relative to decitabine” value was “less than one-half as toxic as decitabine” and the TD50 is 50 µM. Besides, in series [2], the % DNMT1 protein level remaining at 5 µM was determined as 84%, the % DNMT1 protein level remaining at 10 µM was 150% and the % DNMT1 protein level remaining at 100 µM was 142%. The IC50 in series [3] was found to be 12.5 µM.
With `Cc1cc(Nc2ccc(NC(=O)c3ccc(Nc4ccnc5ccc(N(C)C)cc45)cc3)cc2)nc(N)n1.Cl` [Cpd. P, N-[4-(2-amino-6-methylpyrimidin-4-ylamino)phenyl]-4-(6-(dimethylamino)quinolin-4-ylamino)benzamide hydrochloride], the melting point lay in the range of 260 to 265 °C. In addition, in series [1], the “toxicity relative to decitabine” value was “less than one-half as toxic as decitabine” and the TD50 worked out at 25 µM. Also, in series [2], the % DNMT1 protein level remaining at 5 µM was found to be 57%, the % DNMT1 protein level remaining at 10 µM is 91% and the % DNMT1 protein level remaining at 100 µM amounted to 11%. Further, the IC50 in series [3] (dose at which the GFP expression level goes from g3 to g1/2) is 50 µM.
As to `CN(C)c1ccc2nccc(Nc3ccc(C(=O)Nc4cccc(Nc5cc[n+](C)cc5)c4)cc3)c2c1` [Cpd. Q, 6-(dimethylamino)-4-[4-({3-[(1-methyl-4-pyridiniumyl)amino]anilino}carbonyl)anilino]quinolinium dichloride], the melting point is over 300 °C. In series [1], the “toxicity relative to decitabine” value was “less than one-half as toxic as decitabine” and the TD50 was 25 µM. For the same compound, in series [2], the % DNMT1 protein level remaining at 5 µM worked out at 219%, the % DNMT1 protein level remaining at 10 µM was determined as 93% and the % DNMT1 protein level remaining at 100 µM came to 10%. For the same compound, the IC50 in series [3] came to 12.5 µM.

By melting point is commonly meant the temperature of the solid-liquid transition. As a reminder, the IC50 is the concentration that gives 50% inhibition.
